Reference: article PMC9163831 (Frontiers in Microbiology, 2022)

How the values were obtained:
[1] = system: Salmonella 26FS14 (mcr-1); assay: Antimicrobial combination susceptibility testing (MIC, MBC, checkerboard FICI) in MH broth; assay type: cell-based, S. typhimurium; conditions: for MIC (in combination): colistin + IBG checkerboard
Description: (§1) The susceptibility of the selected Salmonella isolates and quality control isolate (ATCC 25922) to colistin and IBG in MH broth was investigated in accordance with the methods and quality control requirements recommended by the Clinical and Laboratory Standards Institute. Minimal inhibitory concentration (MIC) was the lowest concentration of colistin where visible bacterial growth was inhibited after 24 h of incubation. E. coli ATCC 25922 was used as the quality control strain to ensure the credibility of MICs tested. Susceptibility testing was performed in triplicate and germ-free controls (blank medium). The minimum bactericidal concentration (MBC) in MH broth was measured according to a previous report (Lei et al., [2017]). The synergistic activity between colistin and IBG, and the fractional inhibitory concentration indices (FICI) were measured by checkerboard assays, based on the MIC of each drug (MacNair et al., [2018]). In brief, 50 μL of broth was added to each well, and 50 μL of the indicated concentration of colistin was added into the first well of each line. This process was followed by multiple proportion dilution. Next, 50 μL of samples of different IBG concentrations was added to the dilution medium, and 100 μL of inoculum with a cell density of ~1 × 10^6 colony-forming units (CFU)/mL was added to each well. The FICI was calculated follows:
(§2) (1) FICI=MIC(Colistinincombination)/MIC(Colistin)+MIC(IBGincombination)/MIC(IBG).

[2] = system: Salmonella 26FS26 (mcr-1); assay: as above; assay type: cell-based, S. typhimurium; conditions: for MIC (in combination): colistin + IBG checkerboard
Description: as §1, §2

Salmonella ATCC14028 = assay: as above; assay type: cell-based, S. typhimurium; conditions: for MBC / MIC: alone; for MIC (in combination): colistin + IBG checkerboard
Description: as §1, §2

Salmonella S226 (mcr-1) = assay: as above; assay type: cell-based, S. typhimurium; conditions: for MIC (in combination): colistin + IBG checkerboard
Description: as §1, §2

Salmonella S235 (mcr-1) = assay: as above; assay type: cell-based, S. typhimurium; conditions: for MIC (in combination): colistin + IBG checkerboard
Description: as §1, §2

[3] = system: human lung epithelial cells (A549); set-up: method as in Zhang et al., [2019]; conditions: ref Zhang et al., [2019]; cited from earlier work
erythrocytes in mice = system: erythrocytes in mice; set-up: method as in Zhang et al., [2019]; conditions: ref Zhang et al., [2019]; cited from earlier work
[4] = set-up: method as in Xiao et al., [2018]; conditions: IBG supplementation; ref Xiao et al., [2018]; cited from earlier work
[5] = system: mcr-1-positive Salmonella; assay: MIC of colistin with and without IBG; assay type: cell-based
Description: as §1, with “well.” for “well. The FICI was calculated follows:”

[6] = system: mcr-1-positive Salmonella; assay: In vitro time-killing curves; assay type: cell-based
Description: After MIC determination, different concentrations of colistin were prepared in broth ranging from different doses before bacterial inoculation (10^6 CFU/mL). Growth was checked with control. The tubes containing bacteria and different concentrations of colistin and IBG were incubated at 37°C. The bacterial count (CFU/mL) was determined for each tube after 0, 1, 2, 4, 6, 8, 12, and 24 h of incubation. In brief, 100 μL of culture was obtained for each time point, and serially diluted, and the colonies were counted the next morning. Each concentration test was performed in triplicate.

[7] = Pharmacokinetics of colistin in ileum contents, mcr-1-positive Salmonella infection model; assay type: in vivo, broilers; conditions: for AUC0-24h (intestinal colistin) / Cmax (peak intestinal colistin concentration) / T>MIC: infected broiler
Description: After 7-day acclimation, 200 infected broilers were randomly divided into five groups (n = 40/group). Pharmacokinetic analysis of colistin (2, 4, 8, and 16 mg/kg) alone and in combination (4 mg/kg colistin, 32 mg/kg IBG) was performed in mcr-1-positive Salmonella infection broilers following oral gavage. At 0.25, 0.5, 0.75, 1, 2, 4, 6, 8, 12, and 24 h after oral administration, four broilers per group were humanely killed and ileum contents (0.5 g) were sampled. The concentration of colistin in each ileum content sample was determined by validated liquid chromatography-tandem mass spectrometry (LC-MS/MS), with minor modifications. Briefly, intestinal contents (0.5 g) were extracted with 10 mL of 10% trichloroacetic acid and 10 mL of 4% lead acetate, homogenized for 1 min, ultrasonicated (30 min) and centrifuged (10,000 g, 10 min) to obtain supernatant. Thereafter, 2 mL of extraction solution was applied to HLB SPE cartridges, which were prewashed with 3 mL of methanol and 3 mL of water. The cartridges were then rinsed with 3 mL of 4% lead acetate. Afterward, the colistin was eluted with 6 mL of 20% methanol. The elute was evaporated to dryness under a gentle N2 stream at 40°C and the residue was dissolved in 0.5 mL of 0.1% formic acid for concentration analysis. The drug concentrations in intestinal contents were determined using HPLC-MS/MS. The calibration range was 0.25–5 μg/g. The intraday and interday precision levels varied from 2.1 to 9.8% and from 4.5 to 7.0%, respectively. The limit of detection (LOD) and limit of quantification (LOQ) were 0.10 and 0.25 μg/g, respectively.
The values of colistin intestinal content PK parameters in single-dose PK studies were obtained by non-compartmental analysis in Phoenix WinNonlin® 8.2 (Certara, L.P., Princeton, NJ, USA).

[8] = system: mcr-1-positive Salmonella; assay: Pharmacodynamics of colistin combined with IBG in an intestinal infection model; assay type: in vivo, broilers
Description: Broilers were inoculated by oral gavage with 1 mL of mcr-1-positive Salmonella culture containing […]. Necropsies of broilers that had died from infection and of euthanized animals were investigated, and the ileum content samples of broilers were taken as previously described (Addwebi et al., [2014]; Wang et al., [2020]). DNA was extracted from ileum content samples using a fecal DNA extraction kit (G-Clone, Beijing, China) in accordance with the manufacturer's instructions.
Pharmacodynamic analysis of combined colistin and IBG treatment in mcr-1-positive Salmonella infection broilers was performed at 3 h after administration of the inoculum. Afterward, 32 mg/kg of IBG was combined with 2, 4, 8, or 16 mg/kg of colistin, and colistin and IBG were also tested alone at 2, 4, 8, and 16 mg/kg (n = 4 for each group). The broilers were sacrificed after 24 h of therapy, and the intestinal content samples were aseptically removed and homogenized for CFU determination. Untreated control broilers were sacrificed before colistin treatment and at 24 h after treatment.

[9] = system: mcr-1-positive Salmonella; assay: PK/PD analysis, inhibitory effect Imax model; assay type: in vivo, broilers
Description: PK/PD analysis was conducted using the inhibitory effect Imax model (Riviere and Toutain, [2011]). This model is described by the following equation: […]
where E is the antibacterial effect, measured as change in log10CFU/g after 24 h of treatment, compared with the initial log10CFU/g in the untreated control broiler; E0 is the difference in the number of bacteria (log10CFU/g) in control samples between time 0 and 24 h. Imax is the maximum antimicrobial growth inhibition determined as the change in log10CFU/g after 24 h treatment with colistin combined with IBG. X is the predictive variable (expressed as AUC0−24h/MIC, Cmax/MIC, and %T>MIC), and IC50 is the X value producing 50% of the maximum antibacterial effect. The relationship between efficacy and the three PK/PD indices was determined by non-linear least-squares regression in a Phoenix WinNonlin® PD model. The coefficient of determination (R^2) was used to estimate the variance caused by regression for each PK/PD index.

[10] = system: mcr-1-positive Salmonella; assay: Dose determination from AUC/MIC targets; assay type: in vivo, broilers; conditions: combination: with 32 mg/kg of IBG
Text: The potential optimal dosage can be calculated using the following equation (Toutain et al., [2002], [2007]):
(3) Dose=(AUC/MIC)·MIC·CL/fu·F,
where dose (per day) is at steady state; CL is the clearance per day; AUC/MIC is the targeted endpoint for optimal efficacy in hours; MIC is the target pathogen; F is the bioavailability factor (from 0 to 1), and fu is the free fraction of the drug (from 0 to 1). In this study, fu = 1.

[11] = set-up: method as in Mead et al. ([2021]); conditions: oral administration, 75,000 I.U./kg, chicken; ref Mead et al. ([2021]); cited from earlier work
[12] = single gavage 16 mg/kg colistin

## CC(C)Oc1ccc(/C=N/NC(=N)N/N=C/c2ccc(OC(C)C)cc2)cc1 [IBG, isopropoxy benzene guanidine]
[1]
  MIC (in combination): 8 µg/mL
[2]
  MIC (in combination): 16 µg/mL
Salmonella ATCC14028
  MBC: >512 µg/mL
  MIC: >512 µg/mL
  MIC (in combination): 4 µg/mL
Salmonella S226 (mcr-1)
  MIC (in combination): 16 µg/mL
Salmonella S235 (mcr-1)
  MIC (in combination): 16 µg/mL
[3]
  Cytotoxicity IC50: 28 µg/mL
Erythrocytes in mice
  HC50: > 400 µg/mL
[4]
  Adverse reactions in broilers: without adverse reactions
  Average daily gain of broilers: improved
  Diarrhea rate of broilers: reduced

## Colistin sulfate
[1]; alone
  MBC: 4 µg/mL
  MIC: 2 µg/mL
[1]
  MIC (in combination): 0.25 µg/mL
[2]; alone
  MBC: 4 µg/mL
  MIC: 2 µg/mL
[2]
  MIC (in combination): 0.5 µg/mL
Salmonella ATCC14028
  MBC: 1 µg/mL
  MIC: 0.5 µg/mL
  MIC (in combination): 0.125 µg/mL
Salmonella S226 (mcr-1); alone
  MBC: 4 µg/mL
  MIC: 2 µg/mL
Salmonella S226 (mcr-1)
  MIC (in combination): 0.25 µg/mL
Salmonella S235 (mcr-1); alone
  MBC: 4 µg/mL
  MIC: 2 µg/mL
Salmonella S235 (mcr-1)
  MIC (in combination): 0.25 µg/mL
[5]; colistin alone
  MIC of colistin: 2 µg/mL
[5]; in the presence of 8 mg/L of IBG
  MIC of colistin in the presence of IBG: 0.25 µg/mL
[6]; colistin at 4 mg/L, mcr-1-positive Salmonella
  Time-kill result: Persisting inhibition of bacterial growth
[6]; varying concentrations, 24 h
  Killing characteristic (time-kill profiles): concentration-dependent killing
[7]; doses <16 mg/kg, after gavage
  Colistin in ileum samples after 4 h: no colistin was detectable
[7]; single gavage 2 mg/kg colistin
  AUC0-24h (intestinal colistin): 31.58 µg·h/mL
  Cmax (peak intestinal colistin concentration): 13.74 µg/mL
  T>MIC: 15.11%
[7]; single gavage 4 mg/kg colistin
  AUC0-24h (intestinal colistin): 43.79 µg·h/mL
  Cmax (peak intestinal colistin concentration): 34.37 µg/mL
  T>MIC: 16.48%
[7]; single gavage 8 mg/kg colistin
  AUC0-24h (intestinal colistin): 191.81 µg·h/mL
  Cmax (peak intestinal colistin concentration): 75.92 µg/mL
  T>MIC: 16.62%
[7]; [12]
  AUC0-24h (intestinal colistin): 505.29 µg·h/mL
  Cmax (peak intestinal colistin concentration): 151.15 µg/mL
  T>MIC: 99.98%
[8]; single dose of 2–16 mg/kg of colistin every 24 h
  Effect on broilers infected with mcr-1 positive Salmonella: not significant effect
[8]; ≤ 16 mg/kg of colistin, monotherapy
  3 × log10 kill effect in vivo: could not achieve
[9]; Imax model, AUC0-24h/MIC index
  E0: 0.51 log10CFU/g
  IC50 (AUC0-24h/MIC producing 50% of the maximum antibacterial effect): 122.19
  Imax: 4.55 log10CFU/g
[9]; intestinal infection model
  AUC0-24h/MIC for 1 log10 kill: 60.66
  AUC0-24h/MIC for 2 log10 kill: 150.15
  AUC0-24h/MIC for bacteriostatic action: 15.62
[10]
  Dose of colistin required to reach 1 × log10 kill: 7.54 mg/kg
  Dose of colistin required to reach 3 × log10 kill: could not achieve
  Dose of colistin required to reach 4 × log10 kill: could not achieve
  Dose of colistin required to reach stasis: 1.94 mg/kg
[11]
  Time to colistin levels below the LOQ after dosing cessation: ≤ 4 h
